The values below come from US6828322B2, “Triazolo-pyridazine derivatives as ligands for GABA receptors” (Merck Sharp & Dohme Ltd., priority 1998, dated 2004).

The structures appear in SMILES notation.

As for `Cn1ncnc1COc1nn2c(-c3ccccc3F)nnc2cc1-c1cccs1` (hydrate or solvate) [Example 18, 3-(2-Fluorophenyl)-6-(2-methyl-2H-1,2,4-triazol-3-ylmethoxy)-7-(thien-2-yl)-1,2,4-triazolo[4,3-b]pyridazine], the melting point (in general, the temperature of the solid-liquid transition) lay in the range of 189 to 190 °C.
To `Cn1ncnc1COc1nn2c(-c3ccc(F)cc3F)nnc2cc1C1(C)CCCCC1` [Example 12, 3-(2,4-Difluorophenyl)-7-(1-methylcyclohexyl)-6-(2-methyl-2H-1,2,4-triazol-3-ylmethoxy)-1,2,4-triazolo[4,3-b]pyridazine] belongs 196 °C; to `Cn1cnc(COc2nn3c(-c4ccc(F)cc4F)nnc3cc2C2(C)CCCCC2)n1` [Example 13, 3-(2,4-Difluorophenyl)-7-(1-methylcyclohexyl)-6-(1-methyl-1H-1,2,4-triazol-3-ylmethoxy)-1,2,4-triazolo[4,3-b]pyridazine], 156 °C; to `Cn1ccc(COc2nn3c(-c4ccccc4F)nnc3cc2C2CCC2)n1` [Example 14, 7-Cyclobutyl-3-(2-fluorophenyl)-6-(1-methyl-1H-pyrazol-3-ylmethoxy)-1,2,4-triazolo[4,3-b]pyridazine], 184 to 186 °C.
In the case of `Cc1cc(COc2nn3c(-c4ccccc4F)nnc3cc2C2CCC2)no1` [Example 15, 7-Cyclobutyl-3-(2-fluorophenyl)-6-(5-methylisoxazol-3-ylmethoxy)-1,2,4-triazolo[4,3-b]pyridazine] it was 150 °C.
To `Cn1ccnc1COc1nn2c(-c3ccccc3F)nnc2cc1C1CCC1` [Example 16, 7-Cyclobutyl-3-(2-fluorophenyl)-6-(1-methyl-1H-Imidazol-2-ylmethoxy)-1,2,4-triazolo[4,3-b]pyridazine] belongs 173 °C.
With `Cn1cnnc1COc1nn2c(-c3ccccc3F)nnc2cc1C1CCC1` [Example 17, 7-Cyclobutyl-3-(2-fluorophenyl)-6-(4-methyl-4H-1,2,4-triazol-3-ylmethoxy)-1,2,4-triazolo[4,3-b]pyridazine], the melting point is 228 °C.
In the case of `Cn1ncnc1COc1nn2c(-c3ccc(F)cc3F)nnc2cc1-c1cccs1` [Example 19, 3-(2,4-Difluorophenyl)-6-(2-methyl-2H-1,2,4-triazol-3-ylmethoxy)-7-(thien-2-yl)-1,2,4-triazolo[4,3-b]pyridazine] it was 209 to 212 °C; in that of `Cn1cnc(COc2nn3c(-c4ccccc4F)nnc3cc2C2CCC2)c1` [Example 24, 7-Cyclobutyl-3-(2-fluorophenyl)-6-(1-methyl-1H-imidazol-4-ylmethoxy)-1,2,4triazolo[4,3-b]pyridazine], 176 °C; in that of `Cn1ncnc1COc1nn2c(-c3ccccc3F)nnc2cc1C1(F)CCC1` [Example 25, 7-(1-Fluorocyclobutyl)-3-(2-fluorophenyl)-6-(2-methyl-2H-1,2,4-triazol-3-ylmethoxy)-1,2,4-triazolo[4,3-b]pyridazine], 154 to 162 °C.
`Cn1nccc1COc1nn2c(-c3ccccc3F)nnc2cc1C1CCC1` [Example 26, 7-Cyclobutyl-3-(2-fluorophenyl)-6-(2-methyl-2H-pyrazol-3-ylmethoxy)-1,2,4-triazolo[4,3-b]pyridazine]: the melting point lay within 184 to 186 °C.
For the compound `CC(C)Cc1cc2nnc(-c3ccccc3F)n2nc1OCc1ncnn1C` [Example 28, 3-(2-Fluorophenyl)-7-(2-methylpropyl)-6-(2-methyl-2H-1,2,4-triazol-3-ylmethoxy)-1,2,4-triazolo[4,3-b]pyridazine], the melting point lay in the range of 134 to 136 °C.
To `CC(C)CCc1cc2nnc(-c3ccccc3F)n2nc1OCc1ncnn1C` [Example 29, 3-(2-Fluorophenyl)-7-(3-methylbutyl)-6-(2-methyl-2H-1,2,4-triazol-3-ylmethoxy)-1,2,4-triazolo[4,3-b]pyridazine] belongs 103 to 105 °C.
For `Cn1ncnc1COc1nn2c(-c3ccccc3F)nnc2cc1CC1CCCC1` [Example 30, 7-Cyclopentylmethyl-3-(2-fluorophenyl)-6-(2-methyl-2H-1,2,4-triazol-3-ylmethoxy)-1,2,4-triazolo[4,3-b]pyridazine], the melting point was in the range of 135 to 137 °C.
In the case of `Cn1ncnc1COc1nn2c(-c3ccccc3F)nnc2cc1C(F)(F)F` [Example 35, 3-(2-Fluorophenyl)-6-(2-methyl-2H-1,2,4-triazol-3-ylmethoxy)-7-trifluoromethyl-1,2,4-triazolo[4,3-b]pyridazine] it was 123 to 126 °C; in that of `Cn1ncnc1COc1nn2c(-c3ccccc3F)nnc2cc1C1(C)CCOCC1` [Example 36, 3-(2-Fluorophenyl)-7-(4-methyltetrahydropyran-4-yl)-6-(2-methyl-2H-1,2,4-triazol-3-ylmethoxy)-1,2,4-triazolo [4,3-b]pyridazine], 191 °C; in that of `Cn1cnc(COc2nn3c(-c4ccccc4F)nnc3cc2C2(C)CCOCC2)n1` [Example 37, 3-(2-Fluorophenyl)-7-(4-methyltetrahydropyran-4-yl)-6-(1-methyl-1H-1,2,4-triazol-3-ylmethoxy)-1,2,4-triazolo [4,3-b]pyridazine], 154 °C.
In turn, `Cn1cnc(COc2nn3c(-c4ccccc4F)nnc3cc2C2(C)CCC(F)(F)CC2)n1` [Example 40, 7-(4,4-Difluoro-1-methylcyclohexyl)-3-(2-fluorophenyl)-6-(1-methyl-1H-1,2,4-triazol-3-ylmethoxy)-1,2,4-triazolo [4,3-b]pyridazine] returned a melting point of 193 °C.
On to `Cn1ncnc1COc1nn2c(-c3ccccc3F)nnc2cc1C1CC(F)(F)C1` [Example 42, 7-(3,3-Difluorocyclobutyl)-3-(2-fluorophenyl)-6-(2-methyl-2H-1,2,4-triazol-3-ylmethoxy)-1,2,4-triazolo[4,3-b]pyridazine], for which the melting point was determined as 178 °C.
To `Cn1ncnc1COc1nn2c(-c3ccccc3F)nnc2cc1C1CCCO1` (stereo not drawn) [Example 43, 3-(2-Fluorophenyl)-6-(2-methyl-2H-1,2,4-triazol-3-ylmethoxy)-7-(tetrahydrofur-2-yl)-1,2,4-triazolo[4,3-b]pyridazine] belongs 136 to 139 °C.
In the case of `Cn1ncnc1COc1nn2c(-c3ccccc3F)nnc2cc1-c1cccc(F)c1` [Example 44, 7-(3-Fluorophenyl)-3-(2-fluorophenyl)-6-(2-methyl-2H-1,2,4-triazol-3-ylmethoxy)-1,2,4-triazolo[4,3-b]pyridazine] it was 204 to 206 °C.
